Tested on: K98450-129-R-PDC multicell spheroids, viability
Assay: Anticancer human tumor K98450-129-R-PDC patient-derived colon adenocarcinoma cell line growth inhibition [PI3K]
Conditions: for IC50: curve of first compound; for viability, T/C: stronger effect = lower value; active = viability on the fitted dose curve at most 10% of control; inactive = the rest
Summary of the method: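 Complex 3D spheroids (cancer cells + endothelial HUVEC + mesenchymal stem cells); drug pairs of targeted agent x inavolisib/alpelisib/duvelisib/copanlisib; half-log series from ~Cmax, max 10 microM if Cmax unknown; endpoint viability.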

[1] = second compound 0.0316 µM, first compound 0.0316 µM
[2] = second compound 0.0316 µM, first compound 0.1 µM
[3] = second compound 0.1 µM, first compound 0.0316 µM
[4] = second compound 0.1 µM, first compound 0.1 µM
[5] = second compound 0.316 µM, first compound 0.0316 µM
[6] = second compound 0.316 µM, first compound 0.1 µM
[7] = second compound 1 µM, first compound 0.0316 µM
[8] = second compound 1 µM, first compound 0.1 µM
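Note: spheroids exposed to agents for seven days before read-out.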

Cn1cnc2c(F)c(Nc3ccc(Br)cc3Cl)c(C(=O)NOCCO)cc21 + CC(Nc1ccc2c(c1)OCCn1cc(N3C(=O)OCC3C(F)F)nc1-2)C(N)=O
active: viability, T/C (second compound 1 µM, first compound 3 µM) 9.63%
1240 nM: IC50 (second compound 0.1 µM)
605 nM: IC50 (second compound 1 µM)
857 nM: IC50 (second compound 0.316 µM)
inactive: viability, T/C (second compound 0.00316 µM, first compound 0.00949 µM) 105% | viability, T/C (second compound 0.00316 µM, first compound 0.03 µM) 86.9% | viability, T/C (second compound 0.00316 µM, first compound 0.0949 µM) 95.5% | viability, T/C (second compound 0.00316 µM, first compound 0.3 µM) 76.1% | viability, T/C (second compound 0.00316 µM, first compound 0.949 µM) 62.1% | viability, T/C (second compound 0.00316 µM, first compound 3 µM) 25.7% | viability, T/C (second compound 0.01 µM, first compound 0.00949 µM) 102% | viability, T/C (second compound 0.01 µM, first compound 0.03 µM) 88.7% | viability, T/C (second compound 0.01 µM, first compound 0.0949 µM) 91% | viability, T/C (second compound 0.01 µM, first compound 0.3 µM) 75.4% | viability, T/C (second compound 0.01 µM, first compound 0.949 µM) 56.3% | viability, T/C (second compound 0.01 µM, first compound 3 µM) 21.9% | viability, T/C (second compound 0.0316 µM, first compound 0.00949 µM) 99.3% | viability, T/C (second compound 0.0316 µM, first compound 0.03 µM) 93.4% | viability, T/C (second compound 0.0316 µM, first compound 0.0949 µM) 83% | viability, T/C (second compound 0.0316 µM, first compound 0.3 µM) 75.3% | viability, T/C (second compound 0.0316 µM, first compound 0.949 µM) 62.1% | viability, T/C (second compound 0.0316 µM, first compound 3 µM) 17.7% | viability, T/C (second compound 0.1 µM, first compound 0.00949 µM) 89.5% | viability, T/C (second compound 0.1 µM, first compound 0.03 µM) 81.8% | viability, T/C (second compound 0.1 µM, first compound 0.0949 µM) 85.6% | viability, T/C (second compound 0.1 µM, first compound 0.3 µM) 76.5% | viability, T/C (second compound 0.1 µM, first compound 0.949 µM) 60.5% | viability, T/C (second compound 0.1 µM, first compound 3 µM) 16.7% | viability, T/C (second compound 0.316 µM, first compound 0.00949 µM) 83.7% | viability, T/C (second compound 0.316 µM, first compound 0.03 µM) 83.5% | viability, T/C (second compound 0.316 µM, first compound 0.0949 µM) 82.5% | viability, T/C (second compound 0.316 µM, first compound 0.3 µM) 72.2% | viability, T/C (second compound 0.316 µM, first compound 0.949 µM) 48% | viability, T/C (second compound 0.316 µM, first compound 3 µM) 11.1% | viability, T/C (second compound 1 µM, first compound 0.00949 µM) 76.6% | viability, T/C (second compound 1 µM, first compound 0.03 µM) 77.5% | viability, T/C (second compound 1 µM, first compound 0.0949 µM) 78.2% | viability, T/C (second compound 1 µM, first compound 0.3 µM) 66.8% | viability, T/C (second compound 1 µM, first compound 0.949 µM) 38.9%
1330 nM: IC50 (second compound 0.00316 µM)
1150 nM: IC50 (second compound 0.01 µM)
1190 nM: IC50 (second compound 0.0316 µM)

C=CC(=O)N1CCN(c2nc(=O)n(-c3c(C)ccnc3C(C)C)c3nc(-c4c(O)cccc4F)c(F)cc23)C(C)C1 (stereo unspecified) + CC(Nc1ncnc2nc[nH]c12)c1cc2cccc(Cl)c2c(=O)n1-c1ccccc1
3540 nM: IC50 (second compound 1 µM)
3400 nM: IC50 (second compound 0.1 µM)
inactive: viability, T/C [1] 94.3% | viability, T/C [2] 96.5% | viability, T/C (second compound 0.0316 µM, first compound 0.316 µM) 79.7% | viability, T/C (second compound 0.0316 µM, first compound 1 µM) 74.1% | viability, T/C (second compound 0.0316 µM, first compound 3.16 µM) 53.3% | viability, T/C (second compound 0.0316 µM, first compound 10 µM) 44.4% | viability, T/C [3] 106% | viability, T/C [4] 99.7% | viability, T/C (second compound 0.1 µM, first compound 0.316 µM) 89.2% | viability, T/C (second compound 0.1 µM, first compound 1 µM) 67.9% | viability, T/C (second compound 0.1 µM, first compound 3.16 µM) 52.4% | viability, T/C (second compound 0.1 µM, first compound 10 µM) 36.5% | viability, T/C [5] 111% | viability, T/C [6] 105% | viability, T/C (second compound 0.316 µM, first compound 0.316 µM) 92.1% | viability, T/C (second compound 0.316 µM, first compound 1 µM) 68.5% | viability, T/C (second compound 0.316 µM, first compound 3.16 µM) 54% | viability, T/C (second compound 0.316 µM, first compound 10 µM) 46.9% | viability, T/C [7] 113% | viability, T/C [8] 104% | viability, T/C (second compound 1 µM, first compound 0.316 µM) 89.4% | viability, T/C (second compound 1 µM, first compound 1 µM) 73.9% | viability, T/C (second compound 1 µM, first compound 3.16 µM) 46.9% | viability, T/C (second compound 1 µM, first compound 10 µM) 42% | viability, T/C (second compound 3.16 µM, first compound 0.0316 µM) 93.5% | viability, T/C (second compound 3.16 µM, first compound 0.1 µM) 98.1% | viability, T/C (second compound 3.16 µM, first compound 0.316 µM) 96.9% | viability, T/C (second compound 3.16 µM, first compound 1 µM) 60.5% | viability, T/C (second compound 3.16 µM, first compound 3.16 µM) 44.5% | viability, T/C (second compound 3.16 µM, first compound 10 µM) 36.6% | viability, T/C (second compound 10 µM, first compound 0.0316 µM) 81.2% | viability, T/C (second compound 10 µM, first compound 0.1 µM) 78.4% | viability, T/C (second compound 10 µM, first compound 0.316 µM) 84% | viability, T/C (second compound 10 µM, first compound 1 µM) 67.1% | viability, T/C (second compound 10 µM, first compound 3.16 µM) 39.4% | viability, T/C (second compound 10 µM, first compound 10 µM) 32.8%
2020 nM: IC50 (second compound 10 µM)
5920 nM: IC50 (second compound 0.316 µM)
1840 nM: IC50 (second compound 3.16 µM)
5340 nM: IC50 (second compound 0.0316 µM)

Cn1ncnc1[C@H]1c2n[nH]c(=O)c3cc(F)cc(c23)N[C@@H]1c1ccc(F)cc1 + COc1c(OCCCN2CCOCC2)ccc2c3n(c(=NC(=O)c4cnc(N)nc4)nc12)CCN3
> 100 nM: IC50 (second compound 0.00316 µM) | IC50 (second compound 0.01 µM) | IC50 (second compound 0.0316 µM) | IC50 (second compound 0.1 µM) | IC50 (second compound 0.316 µM) | IC50 (second compound 1 µM)
inactive: viability, T/C (second compound 0.00316 µM, first compound 0.000316 µM) 98.6% | viability, T/C (second compound 0.00316 µM, first compound 0.001 µM) 95.2% | viability, T/C (second compound 0.00316 µM, first compound 0.00316 µM) 96.7% | viability, T/C (second compound 0.00316 µM, first compound 0.01 µM) 98% | viability, T/C (second compound 0.00316 µM, first compound 0.0316 µM) 100% | viability, T/C (second compound 0.00316 µM, first compound 0.1 µM) 92.9% | viability, T/C (second compound 0.01 µM, first compound 0.000316 µM) 91.8% | viability, T/C (second compound 0.01 µM, first compound 0.001 µM) 89.6% | viability, T/C (second compound 0.01 µM, first compound 0.00316 µM) 95.1% | viability, T/C (second compound 0.01 µM, first compound 0.01 µM) 96.9% | viability, T/C (second compound 0.01 µM, first compound 0.0316 µM) 94.6% | viability, T/C (second compound 0.01 µM, first compound 0.1 µM) 91.9% | viability, T/C (second compound 0.0316 µM, first compound 0.000316 µM) 90.1% | viability, T/C (second compound 0.0316 µM, first compound 0.001 µM) 88.7% | viability, T/C (second compound 0.0316 µM, first compound 0.00316 µM) 94.5% | viability, T/C (second compound 0.0316 µM, first compound 0.01 µM) 90.6% | viability, T/C [1] 89.5% | viability, T/C [2] 70.1% | viability, T/C (second compound 0.1 µM, first compound 0.000316 µM) 92.3% | viability, T/C (second compound 0.1 µM, first compound 0.001 µM) 85.5% | viability, T/C (second compound 0.1 µM, first compound 0.00316 µM) 88.6% | viability, T/C (second compound 0.1 µM, first compound 0.01 µM) 89.8% | viability, T/C [3] 89.5% | viability, T/C [4] 78.6% | viability, T/C (second compound 0.316 µM, first compound 0.000316 µM) 56.6% | viability, T/C (second compound 0.316 µM, first compound 0.001 µM) 63.6% | viability, T/C (second compound 0.316 µM, first compound 0.00316 µM) 64.5% | viability, T/C (second compound 0.316 µM, first compound 0.01 µM) 48.5% | viability, T/C [5] 59.1% | viability, T/C [6] 65.4% | viability, T/C (second compound 1 µM, first compound 0.000316 µM) 49.9% | viability, T/C (second compound 1 µM, first compound 0.001 µM) 58% | viability, T/C (second compound 1 µM, first compound 0.00316 µM) 52.8% | viability, T/C (second compound 1 µM, first compound 0.01 µM) 62% | viability, T/C [7] 56.5% | viability, T/C [8] 54.1%

From PubChem BioAssay AID1963961 (Molecular Pharmacology Branch, DTP, NCI, 2024)
